Data reported in US6858622B2, “Cycloalkano-indole and -azaindole derivatives” (Bayer Aktiengesellschaft, priority 1994, dated 2005).

Columns and labels:
[1] = tested on: release of ApoB-100-associated lipoproteins from HepG2 cells; experiment: Inhibition of the release of ApoB-100-associated lipoproteins from liver cells (HepG2, anti-LDL immunoassay); format: cell-based; settings: Homo sapiens; substance concentration at which light absorption at 450 nm (ApoB-100-associated particles in HepG2 supernatant) is inhibited by 50% vs solvent control
Experimental: I. Inhibition of the Release of ApoB-100-Associated Lipoproteins
The test for detecting the inhibition of the release of ApoB-100-associated lipoproteins from liver cells was carried out in vitro using cultured liver cells, preferably using cells of the human line HepG2. These cells are cultured under standard conditions in medium for the culture of eukaryotic cells, preferably in RPMI 1640 with 10% foetal calf serum. HepG2 cells synthesize and secrete into the culture supernatant ApoB-100-associated lipoprotein particles which in principle are built up in a similar manner to the VLDL and LDL particles which are to be found in the plasma.
These particles can be detected using an immunoassay for human LDL. This immunoassay is carried out using antibodies which have been induced against human LDL in rabbits under standard conditions. The anti-LDL antibodies (rabbit anti-LDL Ab) were purified by affinity chromatography on an immunosorbent using human LDL. […] The immune complex located on the plastic surface is detected using monoclonal antibodies which have been induced against human LDL and purified according to standard conditions. […] After acidification of the reaction mixture with H2SO4, the specific light absorption at 450 nm is determined, which is a measure of the amount of ApoB-100-associated particles which have been secreted into the culture supernatant by the HepG2 cells. […]

VLDL secretion = experiment: Determination of the VLDL secretion in vivo in the hamster (Triton WR-1339 triglyceride rise); parameters: species or system golden hamsters; settings: Mesocricetus auratus, po, VLDL secretion measured as triglyceride rise after Triton WR-1339
Experimental: 2. Determination of the VLDL Secretion In Vivo in the Hamster
The effect of the test substances on VLDL secretion in vivo is investigated in the hamster. To do this, golden hamsters are anaesthetized with Ketaset (83 mg/kg s.c.) and Nembutal (50 mg/kg i.p.) after premedication with atropine ([…] s.c.). When the animals have become reflex-free, the jugular vein is exposed and cannulated. 0.25 ml/kg of a 20% strength solution of Triton WR-1339 in physiological saline solution is then administered. This detergent inhibits the lipoprotein lipase and thus leads to a rise in the triglyceride level as a result of a lack of catabolism of secreted VLDL particles. This triglyceride rise can be used as a measure of the VLDL secretion rate.
Blood is taken from the animals before and also one and two hours after administration of the detergent by puncture of the retroorbital venous plexus. […] The triglyceride concentration in the serum thus obtained is determined with the aid of a modified commercially available enzyme test (Merckotest® triglyceride No. 14354). […] The optical density is then determined at a wavelength of 492 nm in an automatic plate-reading apparatus (SLT Spectra). […] The triglyceride concentration contained in the samples is determined with the aid of a standard curve measured in parallel. […]

Row | SMILES | IC50 [1] | ED50 (VLDL secretion)
1 | Cc1cc(C)c2c3c(n(Cc4ccc(C(C(=O)N[C@@H](CO)c5ccccc5)C5CCCC5)cc4)c2n1)CCCC3 (stereo partly drawn) [Ex. No. 1, 2-S— and 2-(R)-2-[4-(2,4Dimethyl-5,6,7,8-tetrahydro-α-carbolin-9-yl)-methyl-phenyl]-2-cyclopentyl-acetic acid N—[(R)-phenylglycinolamide]] | 28 nM | 
2 | Cc1cc(C)c2c3c(n(Cc4ccc(C(C(=O)N[C@@H](CO)c5ccccc5)C5CCCC5)cc4)c2n1)CCCC3 (single isomer, unassigned) [Ex. No. 2] |  | 10 to 15 mg/kg
